Several values for one entry are separate records, joined by “and”; a condition that tells them apart may be missing. Identical values can stand only once.

Holding throughout (test): Y2H growth and quantitative α-galactosidase assay
Format in all cases: cell-based

One assay has as its target T1, SCRM-FAMA heterodimer (Arabidopsis thaliana, UniProt Q56YJ8).
T1 construct: truncated SPCH and FAMA proteins lacking their N-terminal domain were used in yeast; expressed in transfected cells; host or cells: yeast strain AH109
Conditions: for a-galactosidase: yeast FAMA∆N+SCRM, individual replicates, listed as AYSJ929. On the procedure:
(§1) Y2H assays were performed using the Matchmaker^TM Two-Hybrid System (Clontech). Bait (pGBKT7) and prey (pGADT7) constructs were co-transformed into the yeast strain AH109 using Frozen-EZ Yeast Transformation II Kit (Zymo Research, T2001). The resulting transformants were spotted on SD ( − Leu, −Trp) and SD ( − Trp, −Leu, −His) selection media containing different concentrations of 3-amino-1,2,4-triazole (Sigma, A8056) as previously reported. Quantitative α-galactosidase assay was also performed according to manufactural instruction (Clontech). Briefly, the transformants were incubated in 2 ml SD medium with 0, 10, 50 100 μM Stomidazolone (3) or SIM3* (7) with rotary shake (220 rpm) at 30 °C overnight. The cultured media containing yeast were transferred to microtubes and centrifuged to obtain the supernatant. The colorimetric assay was performed by incubating 8 μL of supernatant with 24 μL Assay Buffer that contains 0.5 M sodium acetate (pH 4.5) (Nakalai tesque, 31137-25): 100 mM p-nitrophenyl α-D-Galactopyranoside Solution (Sigma N0877) = 2:1 (v/v) at 30 °C for 60 min, then terminated by adding 960 μL 1X Stop Solution (0.1 M sodium carbonate, Fujifilm Wako 195-01582). After OD410 was recorded, α-galactosidase units were calculated according to the protocol (Clontech, P3024-1).

For another assay, the target named is T2, SCRM-MUTE heterodimer (Arabidopsis thaliana, UniProt Q9M8K6).
T2 construct: expressed in transfected cells; host or cells: yeast strain AH109
T2 sequence (Q9M8K6 1-202): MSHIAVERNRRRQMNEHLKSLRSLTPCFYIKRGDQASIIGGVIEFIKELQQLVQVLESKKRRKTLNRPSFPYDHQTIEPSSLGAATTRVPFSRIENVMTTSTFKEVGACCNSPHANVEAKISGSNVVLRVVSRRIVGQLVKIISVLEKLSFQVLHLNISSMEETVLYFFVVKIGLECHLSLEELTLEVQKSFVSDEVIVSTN
The conditions noted are these: for a-galactosidase: yeast MUTE+SCRM, individual replicates, listed as AYSJ929. On the procedure:
as §1

The target of a further assay is T3, SCRM-SPCH heterodimer (Arabidopsis thaliana, UniProt Q700C7).
T3 construct: truncated SPCH and FAMA proteins lacking their N-terminal domain were used in yeast; expressed in transfected cells; host or cells: yeast strain AH109
T3 sequence (Q700C7 98-364 limits assumed): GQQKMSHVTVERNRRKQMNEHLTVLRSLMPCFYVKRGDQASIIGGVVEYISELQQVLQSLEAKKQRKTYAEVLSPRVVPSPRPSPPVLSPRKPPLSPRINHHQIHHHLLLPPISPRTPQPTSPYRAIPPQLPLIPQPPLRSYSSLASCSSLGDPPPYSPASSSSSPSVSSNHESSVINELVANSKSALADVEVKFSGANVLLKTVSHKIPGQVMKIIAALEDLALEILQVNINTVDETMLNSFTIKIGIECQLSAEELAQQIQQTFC
The conditions noted are these: for a-galactosidase: yeast SPCH∆N+SCRM, individual replicates, listed as AYSJ929. As for the experimental part:
as §1

T1 sequence (Q56YJ8 190-414, one chain of several): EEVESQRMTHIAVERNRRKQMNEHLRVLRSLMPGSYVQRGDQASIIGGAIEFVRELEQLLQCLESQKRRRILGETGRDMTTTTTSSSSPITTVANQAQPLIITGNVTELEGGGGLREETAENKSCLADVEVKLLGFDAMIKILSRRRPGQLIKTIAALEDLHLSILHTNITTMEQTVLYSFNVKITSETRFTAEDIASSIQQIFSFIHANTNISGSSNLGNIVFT

On to `O=C1C(c2ccccc2)=NC(NS(=O)(=O)c2ccccc2)(c2ccccc2)N1S(=O)(=O)c1ccccc1` (stereo not drawn) [Stomidazolone], for which the “effect in quantitative α-galactosidase assay” value was “inhibits these stomatal bHLH heterodimers in a dose-dependent manner” on SCRM-FAMA heterodimer (0, 10, 50, 100 μM); “inhibits these stomatal bHLH heterodimers in a dose-dependent manner” at SCRM-MUTE heterodimer (0, 10, 50, 100 μM); “slightly less impact” at SCRM-SPCH heterodimer (0, 10, 50, 100 μM). The “effect on association in Y2H growth assay” value is “diminishes” on SCRM-FAMA heterodimer (50 μM, 1 mM 3-AT, N-terminally truncated FAMA); “diminishes” at SCRM-MUTE heterodimer (50 μM, 1 mM 3-AT); “diminishes” on SCRM-SPCH heterodimer (50 μM, 1 mM 3-AT, N-terminally truncated SPCH). Besides, the a-galactosidase at SCRM-FAMA heterodimer (10 µM) was 9.32 milliunits /(ml x cell) and 7.38 milliunits /(ml x cell) and 8.74 milliunits /(ml x cell); at SCRM-FAMA heterodimer (50 µM), 7.60 milliunits /(ml x cell) and 6.41 milliunits /(ml x cell) and 6.17 milliunits /(ml x cell); at SCRM-FAMA heterodimer (100 µM), 5.72 milliunits /(ml x cell) and 5.36 milliunits /(ml x cell) and 4.71 milliunits /(ml x cell); on SCRM-MUTE heterodimer (10 µM), 6.11 milliunits /(ml x cell) and 7.57 milliunits /(ml x cell) and 6.75 milliunits /(ml x cell); on SCRM-MUTE heterodimer (50 µM), 4.46 milliunits /(ml x cell) and 5.23 milliunits /(ml x cell) and 6.35 milliunits /(ml x cell); at SCRM-MUTE heterodimer (100 µM) it was 5.40 milliunits /(ml x cell) and 3.71 milliunits /(ml x cell) and 5.42 milliunits /(ml x cell). Besides, the a-galactosidase at SCRM-SPCH heterodimer (10 µM) was 5.51 milliunits /(ml x cell) and 5.69 milliunits /(ml x cell) and 5.47 milliunits /(ml x cell); at SCRM-SPCH heterodimer (50 µM), 5.02 milliunits /(ml x cell) and 5.49 milliunits /(ml x cell) and 5.63 milliunits /(ml x cell); at SCRM-SPCH heterodimer (100 µM), 5.62 milliunits /(ml x cell) and 5.13 milliunits /(ml x cell).

The record behind these values is article PMC11500415, “Chemical inhibition of stomatal differentiation by perturbation of the master-regulatory bHLH heterodimer via an ACT-Like domain” (Nature Communications, 2024).
